Assay results published in paper PMC5564600 (Oncotarget, 2017).
Several values for one entry are separate records, joined by “and”; a condition that tells them apart may be missing. Identical values can stand only once.

Tests used:
Test in all cases: biochemical
Assay type in all cases: binding
panel of 442 kinases [1] = molecular target: T1, panel of 442 kinases (Homo sapiens, UniProt P24723); details: kinase PRKCH; for remaining activity at 1 µM: read-out: PRKCH (% of control at 1 µM)
T1 construct: purchased Ambit Biosciences (scanMAXX KINOMEscan)

panel of 442 kinases [2] = molecular target: T2, panel of 442 kinases (Homo sapiens, UniProt Q8IYT8); details: kinase ULK2; for remaining activity at 1 µM: read-out: ULK2 (% of control at 1 µM)
T2 construct: purchased Ambit Biosciences (scanMAXX KINOMEscan)
T2 sequence (Q8IYT8 1-1036): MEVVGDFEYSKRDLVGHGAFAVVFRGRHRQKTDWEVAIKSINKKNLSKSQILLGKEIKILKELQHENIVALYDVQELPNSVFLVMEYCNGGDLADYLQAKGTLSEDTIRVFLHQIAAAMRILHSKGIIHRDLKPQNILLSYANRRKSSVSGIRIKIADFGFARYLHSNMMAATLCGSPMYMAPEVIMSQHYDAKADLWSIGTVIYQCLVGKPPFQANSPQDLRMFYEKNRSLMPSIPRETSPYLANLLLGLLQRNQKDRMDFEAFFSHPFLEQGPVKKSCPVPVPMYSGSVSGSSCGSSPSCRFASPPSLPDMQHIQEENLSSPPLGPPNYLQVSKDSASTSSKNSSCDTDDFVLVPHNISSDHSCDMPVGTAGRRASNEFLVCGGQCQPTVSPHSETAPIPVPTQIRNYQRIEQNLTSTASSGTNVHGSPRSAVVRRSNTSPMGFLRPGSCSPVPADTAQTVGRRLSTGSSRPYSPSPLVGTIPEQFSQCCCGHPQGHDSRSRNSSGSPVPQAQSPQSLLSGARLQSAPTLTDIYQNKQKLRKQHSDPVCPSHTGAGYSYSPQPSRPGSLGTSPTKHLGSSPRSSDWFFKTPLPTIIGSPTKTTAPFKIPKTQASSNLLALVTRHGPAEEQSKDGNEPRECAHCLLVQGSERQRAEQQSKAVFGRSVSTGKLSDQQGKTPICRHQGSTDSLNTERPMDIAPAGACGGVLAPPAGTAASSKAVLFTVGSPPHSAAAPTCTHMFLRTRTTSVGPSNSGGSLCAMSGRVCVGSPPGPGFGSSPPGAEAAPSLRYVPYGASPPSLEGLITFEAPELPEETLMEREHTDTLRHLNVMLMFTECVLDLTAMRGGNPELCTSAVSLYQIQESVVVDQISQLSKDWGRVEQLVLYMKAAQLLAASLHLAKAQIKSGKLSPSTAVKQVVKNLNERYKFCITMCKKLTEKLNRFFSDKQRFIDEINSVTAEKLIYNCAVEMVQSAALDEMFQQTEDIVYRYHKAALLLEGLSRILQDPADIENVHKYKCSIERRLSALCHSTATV

panel of 442 kinases [3] = molecular target: T3, panel of 442 kinases (Homo sapiens, UniProt Q9Y2U5); details: kinase MAP3K2; for remaining activity at 1 µM: read-out: % of control at 1 µM
T3 construct: purchased Ambit Biosciences (scanMAXX KINOMEscan)
T3 sequence (Q9Y2U5 1-619): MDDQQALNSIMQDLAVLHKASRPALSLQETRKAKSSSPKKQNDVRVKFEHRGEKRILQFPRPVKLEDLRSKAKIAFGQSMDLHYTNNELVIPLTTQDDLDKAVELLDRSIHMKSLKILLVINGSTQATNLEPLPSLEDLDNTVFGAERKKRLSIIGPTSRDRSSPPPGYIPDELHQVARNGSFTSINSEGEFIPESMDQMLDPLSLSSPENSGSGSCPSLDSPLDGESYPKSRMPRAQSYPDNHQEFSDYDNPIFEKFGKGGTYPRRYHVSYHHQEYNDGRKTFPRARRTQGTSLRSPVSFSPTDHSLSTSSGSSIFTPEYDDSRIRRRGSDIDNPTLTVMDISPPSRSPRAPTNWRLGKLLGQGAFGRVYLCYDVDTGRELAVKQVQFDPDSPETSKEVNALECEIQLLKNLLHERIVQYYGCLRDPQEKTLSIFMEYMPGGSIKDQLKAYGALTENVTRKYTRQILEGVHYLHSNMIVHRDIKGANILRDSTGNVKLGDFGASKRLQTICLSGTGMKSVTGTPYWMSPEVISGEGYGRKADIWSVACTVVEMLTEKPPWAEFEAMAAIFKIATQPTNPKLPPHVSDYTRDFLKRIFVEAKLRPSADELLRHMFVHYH

panel of 442 kinases [4] = molecular target: T4, panel of 442 kinases (Homo sapiens, UniProt Q9Y6E0); details: kinase MST3; for remaining activity at 1 µM: read-out: % of control at 1 µM
T4 construct: purchased Ambit Biosciences (scanMAXX KINOMEscan)

panel of 442 kinases [5] = tested on: panel of 442 kinases
[6] = 10 µM, read-out: % of control at 10 µM
[7] = EGFR(L747-E749del, A750P), 1 µM
[8] = EGFR(L747-S752del, P753S), 1 µM
[9] = kinase KIT(D816V), first of two lines so named (r206), 1 µM

T4 sequence (Q9Y6E0 whole entry): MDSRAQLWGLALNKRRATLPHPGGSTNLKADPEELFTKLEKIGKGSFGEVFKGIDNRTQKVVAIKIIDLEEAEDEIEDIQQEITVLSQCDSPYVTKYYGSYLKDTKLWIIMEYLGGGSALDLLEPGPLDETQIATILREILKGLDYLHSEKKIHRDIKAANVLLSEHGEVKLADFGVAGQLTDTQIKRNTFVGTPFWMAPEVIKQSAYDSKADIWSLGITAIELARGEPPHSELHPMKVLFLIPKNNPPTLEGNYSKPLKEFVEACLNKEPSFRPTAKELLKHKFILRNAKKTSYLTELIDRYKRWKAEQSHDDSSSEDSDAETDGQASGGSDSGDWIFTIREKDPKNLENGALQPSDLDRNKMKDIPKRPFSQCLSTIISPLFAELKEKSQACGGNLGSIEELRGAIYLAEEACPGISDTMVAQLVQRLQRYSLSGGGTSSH
T1 sequence (P24723 whole entry): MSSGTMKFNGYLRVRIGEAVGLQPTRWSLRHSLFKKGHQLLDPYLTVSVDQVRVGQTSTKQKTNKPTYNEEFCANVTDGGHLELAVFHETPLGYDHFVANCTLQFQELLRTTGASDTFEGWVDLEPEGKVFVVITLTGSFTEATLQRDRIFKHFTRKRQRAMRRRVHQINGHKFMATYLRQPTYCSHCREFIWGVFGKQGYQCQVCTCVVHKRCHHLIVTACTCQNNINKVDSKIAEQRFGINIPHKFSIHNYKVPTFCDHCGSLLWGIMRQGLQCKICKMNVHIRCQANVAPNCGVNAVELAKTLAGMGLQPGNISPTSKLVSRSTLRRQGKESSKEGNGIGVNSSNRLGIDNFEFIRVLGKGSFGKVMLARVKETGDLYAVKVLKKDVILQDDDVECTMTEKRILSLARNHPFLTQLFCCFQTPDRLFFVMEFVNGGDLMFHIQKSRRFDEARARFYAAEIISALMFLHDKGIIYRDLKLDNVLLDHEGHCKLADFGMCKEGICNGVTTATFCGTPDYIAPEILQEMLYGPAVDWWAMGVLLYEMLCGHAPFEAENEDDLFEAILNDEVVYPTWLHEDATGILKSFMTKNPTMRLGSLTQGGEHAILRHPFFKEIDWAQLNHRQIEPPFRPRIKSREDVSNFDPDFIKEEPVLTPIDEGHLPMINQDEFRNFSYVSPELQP

SMILES	remaining activity at 1 µM (panel of 442 kinases [1]) [%]	remaining activity at 10 µM (panel of 442 kinases [1]; 10 µM, read-out: PRKCH (% of control at 10 µM)) [%]	remaining activity at 1 µM (panel of 442 kinases [2]) [%]	remaining activity at 10 µM (panel of 442 kinases [2]; 10 µM, read-out: ULK2 (% of control at 10 µM)) [%]	remaining activity at 1 µM (panel of 442 kinases [3]) [%]	remaining activity at 10 µM (panel of 442 kinases [3]; [6]) [%]	remaining activity at 1 µM (panel of 442 kinases [4]) [%]	remaining activity at 10 µM (panel of 442 kinases [4]; [6]) [%]	% of control at 1 µM (panel of 442 kinases [5]; 1 μM)	% of control at 10 µM (panel of 442 kinases [5]; 10 μM)	% of control at 1 µM (panel of 442 kinases [5]; [7])	% of control at 1 µM (panel of 442 kinases [5]; [8])	% of control at 1 µM (panel of 442 kinases [5]; EGFR(L747-T751del,Sins), 1 µM)	% of control at 1 µM (panel of 442 kinases [5]; FLT3(ITD), 1 µM)	% of control at 1 µM (panel of 442 kinases [5]; [9])
Nc1cc(C(F)(F)F)c(-c2cc(N3CCOCC3)nc(N3CCOCC3)n2)cn1 [Buparlisib]	99	100	86	100	100	100	100	100	85 % of control and 100 % of control and 91 % of control and 86 % of control	96 % of control and 100 % of control and 93 % of control and 88 % of control					
COc1ncc(-c2ccc3nccc(-c4ccnnc4)c3c2)cc1NS(=O)(=O)c1ccc(F)cc1F [Omipalisib]	100		100		100		100				92 % of control	87 % of control	100 % of control	100 % of control	100 % of control
FC(F)c1nc2ccccc2n1-c1nc(N2CCOCC2)nc(N2CCOCC2)n1 [ZSTK474, 2-(difluoromethyl)-1-[4,6-di(4-morpholinyl)-1,3,5-triazin-2-yl]-1H-benzimidazole]	98		100		74		99				89 % of control	100 % of control	100 % of control	99 % of control	100 % of control
CS(=O)(=O)N1CCN(Cc2cc3nc(-c4cccc5[nH]ncc45)nc(N4CCOCC4)c3s2)CC1 [Pictilisib, 2-(1H-indazol-4-yl)-6-(4-methanesulfonyl-piperazin-1-ylmethyl)-4-morpholin-4-yl-t hieno[3,2-d]pyrimidine]									98 % of control and 70 % of control and 99 % of control and 77 % of control and 72 % of control						
Cn1c(=O)n(-c2ccc(C(C)(C)C#N)cc2)c2c3cc(-c4cnc5ccccc5c4)ccc3ncc21 [Dactolisib, 2-methyl-2-[4-(3-methyl-2-oxo-8-quinolin-3-yl-2,3-dihydroimidazo[4,5-c]quinolin-1-yl)-phenyl] propionitrile]	78		93		72		82		81 % of control and 100 % of control and 86 % of control and 59 % of control					44 % of control	
